# Source: PubChem BioAssay (NCI)
# Values joined by “and” are separate entries in the source; they are usually repeats but may differ in a detail not shown here. Equal entries are not always repeated.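 How tested: cells in 96-well plates exposed to compound for 48 hours at five concentrations. At the GI50, growth is halved. TGI marks complete inhibition of growth.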
# Columns and labels:
# Experiment in all cases: DTP human tumour cell line panel, 48 h
# RPMI-8226 leukemia = system: RPMI-8226 leukemia
# SF-295 CNS = system: SF-295 CNS
# LOX IMVI melanoma = system: LOX IMVI melanoma
# HCC-2998 colon = system: HCC-2998 colon
# CAKI-1 renal = system: CAKI-1 renal
# NCI/ADR-RES ovarian = system: NCI/ADR-RES ovarian
# PC-3 prostate = system: PC-3 prostate
# OVCAR-8 ovarian = system: OVCAR-8 ovarian
# OVCAR-3 ovarian = system: OVCAR-3 ovarian
# MALME-3M melanoma = system: MALME-3M melanoma
# SR leukemia = system: SR leukemia
# ACHN renal = system: ACHN renal
# SK-MEL-28 melanoma = system: SK-MEL-28 melanoma
# DU-145 prostate = system: DU-145 prostate
# OVCAR-4 ovarian = system: OVCAR-4 ovarian
Structure (SMILES),TGI (RPMI-8226 leukemia),TGI (SF-295 CNS),TGI (LOX IMVI melanoma),TGI (HCC-2998 colon),TGI (CAKI-1 renal),TGI (NCI/ADR-RES ovarian),TGI (PC-3 prostate),TGI (OVCAR-8 ovarian),TGI (OVCAR-3 ovarian),TGI (MALME-3M melanoma),TGI (SR leukemia),TGI (ACHN renal) [µM],TGI (SK-MEL-28 melanoma),TGI (DU-145 prostate),TGI (OVCAR-4 ovarian) [µM],GI50 (HCC-2998 colon),GI50 (NCI/ADR-RES ovarian),GI50 (PC-3 prostate),GI50 (OVCAR-8 ovarian),GI50 (SK-MEL-28 melanoma)
CCOC1OC(COC(=O)C(C)(C)C)C(O)CC1n1cc(C)c(=O)[nH]c1=O (stereo not given),> 100 µM,> 100 µM,> 100 µM,> 100 µM,> 100 µM,> 100 µM,> 100 µM,> 100 µM,> 100 µM,> 100 µM,> 100 µM,> 100,> 100 µM,> 100 µM,> 100,,,,,
COC(=O)CCC(=O)c1ccc2c(c1)CCC2,> 100 µM,> 100 µM,> 100 µM,> 100 µM,> 100 µM,> 100 µM,> 100 µM,> 100 µM,> 100 µM,> 100 µM,> 100 µM,> 100,> 100 µM,> 100 µM,> 100,,,,,
CCOC1CN=C(Nc2cccc3ccccc23)S1 (stereo not given),> 10 µM,> 10 µM,> 10 µM,> 10 µM,> 10 µM,> 10 µM,> 10 µM,> 10 µM,> 10 µM,> 10 µM,> 10 µM,> 10,> 10 µM,> 10 µM,> 10,,,,,
NC(=O)C1CCCN1C(=O)C(Cc1cnc[nH]1)NC(=O)C1CCCC1 (stereo not given),> 100 µM,> 100 µM,> 100 µM,> 100 µM,> 100 µM,> 100 µM,> 100 µM,> 100 µM,> 100 µM,> 100 µM,> 100 µM,> 100,> 100 µM,> 100 µM,> 100,,,,,
Cc1cc(S(=O)(=O)Nc2n[nH]c(-c3ccc(Cl)cc3)n2)c(SSc2cc(Cl)c(C)cc2S(=O)(=O)Nc2n[nH]c(-c3ccc(Cl)cc3)n2)cc1Cl,> 100 µM,> 100 µM,64.3 µM,40.7 µM,> 100 µM,> 100 µM,84.6 µM,> 100 µM,85.1 µM,> 100 µM,55.3 µM,98.5,96.4 µM,> 100 µM,> 100,,,,,
c1csc(-c2nn3c(C45CC6CC(CC(C6)C4)C5)nnc3s2)c1,> 100 µM,> 100 µM,> 100 µM,> 100 µM,> 100 µM,> 100 µM,> 100 µM,> 100 µM,> 100 µM,> 100 µM,> 100 µM,> 100,> 100 µM,> 100 µM,> 100,,,,,
O=c1ccc2ccc(OP(=O)(O)O)cc2o1,> 100 µM,> 100 µM,> 100 µM,> 100 µM,> 100 µM,> 100 µM,> 100 µM,> 100 µM,> 100 µM,> 100 µM,> 100 µM,> 100,> 100 µM,> 100 µM,> 100,,,,,
C=CCN(c1cc(OC)c(NC(C)=O)cc1[N+](=O)[O-])S(C)(=O)=O,> 100 µM,> 100 µM,> 100 µM,> 100 µM,> 100 µM,> 100 µM,> 100 µM,> 100 µM,> 100 µM,68.5 µM,> 100 µM,> 100,> 100 µM,> 100 µM,> 100,,,,,
FC1(F)[Se]C2C3CCC(C3)C2C1(F)F (stereo not given),> 100 µM,> 100 µM,> 100 µM,> 100 µM,> 100 µM,> 100 µM,> 100 µM,> 100 µM,> 100 µM,> 100 µM,> 100 µM,> 100,> 100 µM,> 100 µM,> 100,,,,,
Cc1cc(NC2=CC(=O)C(=O)c3ccccc32)no1,32.5 µM,21.6 µM,4.06 µM,35.2 µM,17.1 µM,15.6 µM,53.9 µM,29.4 µM,14.1 µM,5.92 µM,> 48.1 µM,25.8,31.6 µM,30.1 µM,21.4,,,,,
Nc1nc(Cl)cc(NCC2(O)CCC2)n1,> 100 µM,> 100 µM,> 100 µM,> 100 µM,> 100 µM,> 100 µM,> 100 µM,> 100 µM,> 100 µM,> 100 µM,> 100 µM,> 100,> 100 µM,> 100 µM,> 100,,,,,
CC1OC(OC2C(OC(=O)[C@]34CCC(C)(C)C[C@H]3C3=CC[C@@H]5[C@@]6(C)CC[C@H](OC7OC(C(=O)O)C(O)C(O)C7O)C(C)(C)[C@@H]6CC[C@@]5(C)[C@]3(C)C[C@H]4O)OCC(O)C2O)C(O)C(O)C1OC1OCC(O)C(O)C1O (stereo not given in full),30.4 µM and 94 µM,29.6 µM and 22.1 µM,30.9 µM and 29.5 µM,12.7 µM and 3.07 µM,25.6 µM and 21.6 µM,27.1 µM and 19 µM,23.7 µM and 18.6 µM,26.5 µM and 5.19 µM,32.2 µM and 29.1 µM,27.8 µM and 25.6 µM,23 µM and > 100 µM,21.5,29.1 µM and 22 µM,28.9 µM and 27.4 µM,31.7,4.02 µM and 1.4 µM,13 µM and 5.11 µM,11.3 µM and 5.07 µM,13.2 µM and 2.33 µM,14.9 µM and 7.34 µM
O=C1NC2c3c(I)sc(I)c3C(=O)C2O1 (stereo not given),34.1 µM,30.5 µM,5.15 µM,15.5 µM,9.36 µM,34.1 µM,19 µM,9.27 µM,11.1 µM,6.88 µM,13.9 µM,7.89,21.5 µM,31 µM,23,,,,,
C=C(Cl)C(Cl)(CBr)CCC(Br)C(C)(C)Br (stereo not given),2.01 µM,3.78 µM,33.3 µM,19.9 µM,5.3 µM,> 55.4 µM,5.68 µM,13.9 µM,6.65 µM,29.6 µM,32.9 µM,5.53,10.1 µM,11.9 µM,36,,,,,
CCOC(=O)c1nc2cc(C(F)(F)F)ccc2nc1Oc1ccc(C#N)cc1,> 100 µM,> 100 µM,> 100 µM,> 100 µM,> 100 µM,> 100 µM,> 100 µM,> 100 µM,> 100 µM,> 100 µM,> 100 µM,> 100,> 100 µM,> 100 µM,> 100,,,,,
CO/C=C/C=C(\C#N)C(=O)OC,> 100 µM,> 100 µM,> 100 µM,> 100 µM,> 100 µM,> 100 µM,> 100 µM,> 100 µM,> 100 µM,> 100 µM,> 100 µM,> 100,> 100 µM,> 100 µM,> 100,,,,,
CC(C)[N+]([O-])(CCCNc1c2ccccc2nc2cccc([N+](=O)[O-])c12)C(C)C,0.0875 µM,0.904 µM,0.427 µM,0.0227 µM,6.2 µM,8.76 µM,11.5 µM,0.628 µM,1.07 µM,0.106 µM,1.15 µM,0.44,0.175 µM,0.133 µM,0.433,,,,,
Cc1ccc(CC(Cc2ccccc2C)C(=O)O)c(C(=O)O)c1 (stereo not given),> 100 µM,> 100 µM,> 100 µM,> 100 µM,> 100 µM,> 100 µM,> 100 µM,> 100 µM,> 100 µM,> 100 µM,> 100 µM,> 100,> 100 µM,> 100 µM,> 100,,,,,
COc1cc(OC)cc(OCc2nc3cc(C(F)(F)F)ccc3nc2-c2ccccc2)c1,> 100 µM,> 100 µM,> 100 µM,> 100 µM,> 100 µM,> 100 µM,> 100 µM,> 100 µM,> 100 µM,> 100 µM,> 100 µM,> 100,> 100 µM,> 100 µM,> 100,,,,,
CN=C1Nc2ccccc2C(=O)N2CSCC12 (stereo not given),> 100 µM,> 100 µM,> 100 µM,> 100 µM,> 100 µM,> 100 µM,> 100 µM,> 100 µM,> 100 µM,> 100 µM,> 100 µM,> 100,> 100 µM,> 100 µM,> 100,,,,,
CCOC(=O)C1(C#N)OC(=O)c2cnccc21 (stereo not given),> 100 µM,> 100 µM,> 100 µM,> 100 µM,> 100 µM,> 100 µM,> 100 µM,> 100 µM,> 100 µM,> 100 µM,> 100 µM,> 100,> 100 µM,> 100 µM,> 100,,,,,
CCOC(=O)c1cc(C2CCN(c3ccccc3)C2=O)c(/C(O)=C/C(C)=O)[nH]1 (stereo not given),> 100 µM,> 100 µM,> 100 µM,> 100 µM,> 100 µM,> 100 µM,> 100 µM,> 100 µM,> 100 µM,> 100 µM,> 100 µM,> 100,> 100 µM,> 100 µM,> 100,,,,,
